# Patent US20090042987A1, “TREATMENT OF NEUROPATHIC PAIN” (priority 2007, published 2009)
# “Also recorded” adds a separate entry of the source.
# Columns and labels:
# Type in all cases: in vivo, rat
# [1] = test system: STZ-diabetic rats; test: von Frey paw withdrawal thresholds, STZ-diabetic rats given multiple dosing regimens (washout protocol), Example 1; conditions: gabapentin 100 mg/kg s.c.
# Method: (§1) Experimental Animals Ethical approval for this study was obtained from the Animal Experimentation Ethics Committee of The University of Queensland. Adult male Sprague-Dawley (SD) rats (222±4 g) were used for this study. Rats were housed in a temperature controlled room (21+2.0 C) with a 12/12 hour light/dark cycle. Food and water were available ad libitum. Initiation of drug administration occurred at 8-11 weeks post-STZ administration for rats in Experiment 1 (PCT-001) and at 10-12 weeks post-STZ administration for rats in Experiment 2 (PCT-007).
# (§2) Test Article Tranilast was supplied by the Sponsor and stored at −4° C. until use. Gabapentin (100 mg/kg, dissolved in water for injection) was utilized as the positive control for this study.
# (§3) Test Article and Vehicle Preparation Test article formulations were prepared freshly on the day of administration by weighing the appropriate amount of bulk powder and suspending it in the required volume of vehicle. Carboxymethyl cellulose ((CMC) 0.5% in water for injection) was utilized as the vehicle for this study.
# (§4) Test Article Administration. […] The maximum oral gavage volume administered in this study was […]. 4.4
# (§5) STZ-Diabetic Rat Model of Painful Diabetic Neuropathy. Painful diabetic neuropathy is a common long-term complication of diabetes in humans that develops as a result of a sustained biochemical nerve injury. […] Following the induction of diabetes with intravenous STZ at 70-80 mg/kg, it generally takes 6-8 wks for tactile allodynia, the defining symptom of PDN, to fully develop in both rat hindpaws.
# (§6) Induction of STZ-Diabetes in Rats. On day 0, rats were anaesthetized with 3% isoflurane:97% O2 and a short polyethylene cannula (0.5 mm ID, 0.8 mm OD) was inserted into the jugular vein to facilitate the intravenous (i.v.) administration of a single dose of streptozotocin (STZ: 70-80 mg/kg). After STZ injection, the cannula was removed and the jugular vein was tied off and the wound was closed. Rats received subcutaneous benzylpenicillin (60 mg) prior to surgery to prevent infection and were kept warm during surgical recovery. Rats were housed singly prior to further experimentation and were monitored daily from the time of STZ administration with regard to general health and well-being.
# (§7) Von Frey Assessment of Paw Withdrawal Thresholds. Calibrated von Frey filaments were used to determine the lowest mechanical threshold required to evoke a brisk paw withdrawal reflex in the rat hindpaws. Briefly, rats were transferred individually to wire mesh testing cages (20 cm×20 cm×20 cm) and allowed to acclimatize for approximately 10-20 min prior to von Frey testing. Commencing with the von Frey filament that produced the 6 g force, the filament was applied to the plantar surface of the hindpaw until the filament buckled slightly. Absence of a response after 3 s prompted use of the next filament of increasing weight. A withdrawal response within 3 s prompted use of the next filament of decreasing weight. Filaments used produced buckling weights of 2, 4, 6, 8, 10, 12, 14, 16, 18 and 20 g. […] Tactile allodynia is regarded as being fully developed when von Frey PWTs in the injured hindpaws are <6 g.
# Restoring von-Frey PWTs in the hindpaws from <6 g to pre-STZ surgery levels (12±2 g) is the treatment goal representing full reversal of tactile allodynia. If drug treatment increases PWTs above pre-surgical baseline values (i.e. >12±2 g), such a response is classified as antinociception. Before administration of STZ, baseline von Frey measurements were assessed. Following STZ administration, baseline PWTs were assessed in the hindpaws at week 8-11 to confirm the development of diabetes-induced tactile allodynia. […]
# [2] = test system: STZ-diabetic rats; test: Behavioural observations / adverse effects in STZ-diabetic rats; conditions: gabapentin 100 mg/kg s.c., 7 consecutive twice-daily bolus doses
# Excerpt: Behavioural Observations. STZ-diabetic rats were monitored for visible and audible signs of distress throughout the testing period. The visible signs of distress included behavioural changes such as complete immobility, movement with abnormal gait, agitation, aggression, wet dog shakes, excessive grooming, restlessness with constant movement, repeated sudden movements or staring.
# [3] = test system: drug-naïve STZ-diabetic rats; test: von Frey paw withdrawal thresholds, drug-naïve STZ-diabetic rats, Example 2
# Method: as §1, §2, §3, §4, §5, §6, §7
# Restoring von-Frey PWTs in the hindpaws from <6 g to pre-STZ surgery levels (12±2 g) is the treatment goal representing full reversal of tactile allodynia. If drug treatment increases PWTs above pre-surgical baseline values (i.e. >12±2 g), such a response is classified as antinociception. Before administration of STZ, baseline von Frey measurements were assessed. Following STZ administration, baseline PWTs were assessed in the hindpaws at week 8-11 to confirm the development of diabetes-induced tactile allodynia.
# Dose-Response Curve for Tranilast in Drug-Naive STZ-Diabetic Rats. […]
# [4] = gabapentin 100 mg/kg s.c., 7th twice-daily dose
# [5] = gabapentin 100 mg/kg s.c., after 7th consecutive twice-daily dose
structure (smiles),measurement,setting,value
NCC1(CC(=O)O)CCCCC1 [Gabapentin],Relief of tactile (mechanical) allodynia in the hindpaws,"[1]; 7 consecutive twice-daily doses, multiple dosing regimens",significant relief of tactile (mechanical) allodynia
same,Mean (±SEM) PWT at the mean time of peak response,"[1]; 7th twice-daily dose, 1 h post-dosing",11.0 (±1.0) g
same,Time of peak anti-allodynia post-dosing,"[1]; 7th twice-daily dose, multiple dosing regimens",0.75 to 1.25 h
same,Mean (±SEM) PWT pre-dose,"[1]; 7th twice-daily dose, pre-dose",4.5 (±0.5) g
same,Adverse (behavioural) effects,[2],no discernible adverse effects; also recorded: did not produce discernible adverse behavioural effects
same,"Baseline PWT thresholds assessed prior to dose 1, 3, 5 and 7",[3]; gabapentin 100 mg/kg s.c. twice-daily,not significantly different
same,Mean (±SEM) von Frey Paw Withdrawal threshold assessed prior to dose,"[3]; gabapentin 100 mg/kg s.c. twice-daily, prior to dose 1",3.7 ± 0.6 g
same,Mean (±SEM) von Frey Paw Withdrawal threshold assessed prior to dose,"[3]; gabapentin 100 mg/kg s.c. twice-daily, prior to dose 3",4.0 ± 0 g
same,Mean (±SEM) von Frey Paw Withdrawal threshold assessed prior to dose,"[3]; gabapentin 100 mg/kg s.c. twice-daily, prior to dose 5",4.7 ± 0.5 g
same,Mean (±SEM) von Frey Paw Withdrawal threshold assessed prior to dose,"[3]; gabapentin 100 mg/kg s.c. twice-daily, prior to dose 7",4.5 ± 0.4 g
same,Mean (±SEM) von Frey Paw Withdrawal threshold following the 7th consecutive dose,"[3]; gabapentin 100 mg/kg s.c. twice-daily, time 0 h (pre-dose)",4.5 ± 0.2 g
same,Mean (±SEM) von Frey Paw Withdrawal threshold following the 7th consecutive dose,"[3]; gabapentin 100 mg/kg s.c. twice-daily, time 0 h (pre-dose), listed as gabapentin",4.5 (±0.2) g
same,Mean (±SEM) von Frey Paw Withdrawal threshold following the 7th consecutive dose,"[3]; gabapentin 100 mg/kg s.c. twice-daily, time 0.15 h",5.75 ± 0.2 g
same,Mean (±SEM) von Frey Paw Withdrawal threshold following the 7th consecutive dose,"[3]; gabapentin 100 mg/kg s.c. twice-daily, time 0.5 h",6.25 ± 0.2 g
same,Mean (±SEM) von Frey Paw Withdrawal threshold following the 7th consecutive dose,"[3]; gabapentin 100 mg/kg s.c. twice-daily, time 0.75 h",7.5 ± 0.6 g
same,Mean (±SEM) von Frey Paw Withdrawal threshold following the 7th consecutive dose,"[3]; gabapentin 100 mg/kg s.c. twice-daily, time 1 h",8.5 ± 0.5 g
same,Mean (±SEM) von Frey Paw Withdrawal threshold following the 7th consecutive dose,"[3]; gabapentin 100 mg/kg s.c. twice-daily, time 1.25 h",9.0 ± 1.0 g
same,Mean (±SEM) von Frey Paw Withdrawal threshold following the 7th consecutive dose,"[3]; gabapentin 100 mg/kg s.c. twice-daily, time 1.25 h, listed as gabapentin",9.0 (±1.0) g
same,Mean (±SEM) von Frey Paw Withdrawal threshold following the 7th consecutive dose,"[3]; gabapentin 100 mg/kg s.c. twice-daily, time 1.5 h",9.0 ± 0.7 g
same,Mean (±SEM) von Frey Paw Withdrawal threshold following the 7th consecutive dose,"[3]; gabapentin 100 mg/kg s.c. twice-daily, time 2 h",7.0 ± 0.4 g
same,Mean (±SEM) von Frey Paw Withdrawal threshold following the 7th consecutive dose,"[3]; gabapentin 100 mg/kg s.c. twice-daily, time 3 h",6.5 ± 0.3 g
same,Relief of tactile allodynia in the hindpaws,"[3]; gabapentin 100 mg/kg s.c., 7 consecutive twice-daily doses",significant relief of tactile allodynia
same,Mean duration of action,[3]; [4],> 3 h
same,Time of peak anti-allodynia post-dosing,[3]; [4],1 to 1.5 h
same,Mean (±SEM) AUC (area under the normalized PWT versus time curve),[3]; [5],8.3 ± 0.4
same,Mean (±SEM) Peak response (PWT),[3]; [5],9.0 ± 1.0
same,Mean (±SEM) % MPR at peak,"[3]; gabapentin 100 mg/kg s.c., after 7th consecutive twice-daily dose, 100% MPR = full reversal of tactile allodynia",75.8 ± 17.2%
same,% MPR at the time of peak effect compared with vehicle,"[3]; gabapentin s.c. 100 mg/kg, 7th consecutive twice-daily dose",significantly greater than that for vehicle
